Results from US11485740B2, “Inhibitors of TRPC6” (Boehringer Ingelheim International GmbH, priority 2018, dated 2022).

Biological target: T1, human TRPC6 (Homo sapiens, UniProt Q9Y210)
T1 construct: expressed in transfected cells
T1 sequence (Q9Y210 1-931): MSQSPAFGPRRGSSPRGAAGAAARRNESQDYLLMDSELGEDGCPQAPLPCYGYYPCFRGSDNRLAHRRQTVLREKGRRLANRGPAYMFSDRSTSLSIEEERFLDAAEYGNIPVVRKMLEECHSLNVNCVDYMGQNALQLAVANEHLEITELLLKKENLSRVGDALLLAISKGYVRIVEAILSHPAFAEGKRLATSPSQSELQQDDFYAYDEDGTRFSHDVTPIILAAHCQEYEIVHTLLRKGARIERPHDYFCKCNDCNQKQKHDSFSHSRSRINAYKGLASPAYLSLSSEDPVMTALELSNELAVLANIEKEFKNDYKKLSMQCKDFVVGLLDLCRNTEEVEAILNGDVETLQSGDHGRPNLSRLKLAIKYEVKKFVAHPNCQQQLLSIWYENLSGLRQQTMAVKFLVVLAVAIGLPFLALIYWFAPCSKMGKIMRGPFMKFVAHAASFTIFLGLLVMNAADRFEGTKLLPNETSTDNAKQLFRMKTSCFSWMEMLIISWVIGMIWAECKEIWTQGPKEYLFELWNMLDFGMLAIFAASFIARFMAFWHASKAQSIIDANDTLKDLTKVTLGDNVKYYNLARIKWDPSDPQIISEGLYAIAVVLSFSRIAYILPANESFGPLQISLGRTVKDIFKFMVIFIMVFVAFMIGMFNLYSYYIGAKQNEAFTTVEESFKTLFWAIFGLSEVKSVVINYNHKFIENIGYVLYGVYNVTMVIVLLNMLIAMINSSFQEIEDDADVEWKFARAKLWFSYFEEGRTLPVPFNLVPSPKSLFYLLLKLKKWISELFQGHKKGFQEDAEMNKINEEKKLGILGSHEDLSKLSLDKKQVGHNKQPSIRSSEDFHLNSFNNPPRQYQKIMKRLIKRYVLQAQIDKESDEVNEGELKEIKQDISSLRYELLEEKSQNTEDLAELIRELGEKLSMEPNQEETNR
Experiment: High throughput screening assay: Fluo4/AM calcium fluorescence in HEK293/TREx cells expressing human TRPC6, agonist GSK1702934A (single concentration 10 μM and IC50 curves)
Format: cell-based
Settings: antagonist effect against human TRPC6, 7 concentrations 20 μM to 0.027 μM, triplicate
From the text: High Throughput Screening Assay
This screening assay measures human TRPC6 (transient receptor potential cation channel, subfamily C, member 6) ion channel activation via addition either of the commercially available DAG ligand analogue OAG (1-oleoyl-2-acetyl-sn-glycerol) or of the TRPC6 agonist 1-[1-(4,5,6,7,8-pentahydrocyclohepta[2,1-d]thiophen-2-ylcarbonyl)-4-piperidyl]-3-hydrobenzimidazol-2-one (GSK1702934A). The assay utilizes a fluorescent calcium sensor 4-(6-Acetoxymethoxy-2,7-difluoro-3-oxo-9-xanthenyl)-4′-methyl-2,2′-(ethylenedioxy)dianiline-N,N,N′,N′-tetraacetic acid tetrakis(acetoxymethyl) ester (Fluo4/AM) dye from Molecular Devices. Changes (increases) in intracellular calcium concentration as measured by the fluorescent signal increase provide a measurement of channel activity.
The commercially available HEK293/TREx line (Invitrogen) was stably transfected with a human TRPC6 construct and screened by conventional calcium imaging to find clones with human TRPC6 expression following stimulation with 1 μg/ml tetracycline. These cells were maintained in the growth medium recommended by the manufacturer supplemented with 100 μg/ml hygromycin to promote retention of the human TRPC6 construct. After growing to near confluency, cells were plated at a density of ^˜35,000 cells/well in 384 well CellBind plates (Corning) in the presence of 1 μg/ml tetracycline, and allowed to grow for 20-30 hrs. A nearly confluent monolayer resulted. Growth media was removed from the wells and cells were then loaded with […] Fluo4/AM diluted in Ringer's Solution (6.5 g NaCl, 0.42 g KCl, 0.25 g CaCl2) and 0.2 g of sodium bicarbonate; pH 7.4) supplemented with 1% Pluronic F-127 to a final concentration of 0.5 μM and incubated for 60 min, at room temperature. Dye solution was then removed from the cells by inverting plates with a sharp flick, and replaced with 25 μl Ringer's. Following ^˜0.5 hour for recovery from loading, cells were assayed using the Hamamatsu FDSS 6000 system, which permitted illumination at 485 nm. Frames were acquired at a rate of 0.2 Hz. During the assay, the plates were continuously vortexed, with pipette mixing of wells following addition of each reagent. For the screening assay, 26 μl of a diluted compound stock (at 50 μM) was added to each well for 2 minutes following the collection of a short (4 frame) baseline. 13 μl of agonist solution consisting of 125 nM GSK1702934A diluted in high-Ca2+Ringer solution (containing 90 mM Ca2+) was then added to each well, achieving a final concentration of 20 mM Ca2+ and 10 μM test compound. Data was collected for ^˜3 minutes following addition of high Ca2+Ringer. The fluorescent intensity observed at a particular timepoint for each well was divided by the initial fluorescent intensity for that well and the overall response was determined by averaging the resulting fluorescent ratio of the last 4 frames acquired during the experiment excepting the final frame. Negative and Positive controls were included on each plate. Negative controls wells consisted of HEK293/TREx TRPC6 cells exposed to assay buffer and agonist solution, but no test compound. Positive control consisted of wells consisted of HEK293/TREx TRPC6 cells exposed to 25 μM 3-[(2-chlorophenoxy)methyl]phenyl piperidyl ketone (Chembridge) diluted in Ringer's solution and agonist solution. These controls defined zero percent and 100 percent block respectively, and intensity of each well was normalized to these values.
Compounds were tested in triplicate at all concentrations. Standard software was used to fit IC50 curves.

IC50 [nM] | SMILES
58 | COc1cc(C(=O)N2CCC(c3ccc(N)nn3)CC2)ncc1-c1ccc(C(F)(F)F)c(F)c1 [Compound 26, [4-(6-Amino-pyridazin-3-yl)-piperidin-1-yl]-[5-(3-fluoro-4-trifluoromethyl-phenyl)-4-methoxy-pyridin-2-yl]-methanone]
36 | COc1cc(C(=O)N2CCC(c3ccc(N)nn3)CC2)ncc1-c1ccc(C(F)(F)F)cc1 [Compound 27, 6-(1-{4-Methoxy-5-[4-(trifluoromethyl)phenyl]pyridine-2-carbonyl}piperidin-4-yl)pyridazin-3-amine]
190 | COc1ccc(-c2cnc(C(=O)N3CCC(c4ccc(N)nn4)CC3)cc2OC)cc1 [Compound 28, [4-(6-Amino-pyridazin-3-yl)-piperidin-1-yl]-[4-methoxy-5-(4-methoxy-phenyl)-pyridin-2-yl]-methanone]
110 | COc1cc(C(=O)N2CCC(c3ccc(N)nn3)CC2)ncc1-c1ccc(OCC(F)(F)F)cc1 [Compound 29, [4-(6-Amino-pyridazin-3-yl)-piperidin-1-yl]-{4-methoxy-5-[4-(2,2,2-trifluoro-ethoxy)-phenyl]-pyridin-2-yl}-methanone]
340 | COc1cc(C(=O)N2CCC(c3ccc(N)nn3)CC2)ncc1-c1ccc(OC(C)C)cc1 [Compound 30, [4-(6-Amino-pyridazin-3-yl)-piperidin-1-yl]-[5-(4-isopropoxy-phenyl)-4-methoxy-pyridin-2-yl]-methanone]
94 | COc1cc(C(=O)N2CCC(c3ccc(N)nn3)CC2)ncc1-c1ccc(OC(F)(F)F)cc1 [Compound 31, [4-(6-Amino-pyridazin-3-yl)-piperidin-1-yl]-[4-methoxy-5-(4-trifluoromethoxy-phenyl)-pyridin-2-yl]-methanone]
110 | COc1cc(C(=O)N2CCC(c3ccc(N)nn3)CC2)ncc1-c1ccccc1 [Compound 32, [4-(6-Amino-pyridazin-3-yl)-piperidin-1-yl]-(4-methoxy-5-phenyl-pyridin-2-yl)-methanone]
62 | COc1cc(C(=O)N2CCC(c3ccc(N)nn3)CC2)ncc1-c1ccc(F)c(F)c1 [Compound 33, [4-(6-Amino-pyridazin-3-yl)-piperidin-1-yl]-[5-(3,4-difluoro-phenyl)-4-methoxy-pyridin-2-yl]-methanone]
100 | COc1cc(C(=O)N2CCC(c3ccc(N)nn3)CC2)ncc1-c1ccc(C)c(F)c1 [Compound 34, [4-(6-Amino-pyridazin-3-yl)-piperidin-1-yl]-[5-(3-fluoro-4-methyl-phenyl)-4-methoxy-pyridin-2-yl]-methanone]
220 | COc1cc(C(=O)N2CCC(c3ccc(N)nn3)CC2)ncc1-c1cccc(F)c1 [Compound 35, 6-{1-[5-(3-Fluorophenyl)-4-methoxypyridine-2-carbonyl]piperidin-4-yl}pyridazin-3-amine]
27 | COc1cc(C(=O)N2CCC(c3ccc(N)nn3)CC2)ncc1-c1ccc(F)cc1 [Compound 36, 6-{1-[5-(4-Fluorophenyl)-4-methoxypyridine-2-carbonyl]piperidin-4-yl}pyridazin-3-amine]
320 | CCOc1ccc(-c2cnc(C(=O)N3CCC(c4ccc(N)nn4)CC3)cc2OC)cc1 [Compound 37, [4-(6-Amino-pyridazin-3-yl)-piperidin-1-yl]-[5-(4-ethoxy-phenyl)-4-methoxy-pyridin-2-yl]-methanone]
180 | COc1cc(C(=O)N2CCC(c3ccc(N)nn3)CC2)ncc1-c1ccc(C(F)F)cc1 [Compound 38, [4-(6-Amino-pyridazin-3-yl)-piperidin-1-yl]-[5-(4-difluoromethyl-phenyl)-4-methoxy-pyridin-2-yl]-methanone]
320 | COc1cc(C(=O)N2CCC(c3ccc(N)nn3)CC2)ncc1-c1ccc(OC(F)F)cc1 [Compound 39, [4-(6-Amino-pyridazin-3-yl)-piperidin-1-yl]-[5-(4-difluoromethoxy-phenyl)-4-methoxy-pyridin-2-yl]-methanone]
73 | COc1cc(C(=O)N2CCC(c3ccc(N)nn3)CC2)ncc1-c1ccc(Cl)cc1 [Compound 40, [4-(6-Amino-pyridazin-3-yl)-piperidin-1-yl]-[5-(4-chloro-phenyl)-4-methoxy-pyridin-2-yl]-methanone]
130 | COc1cc(C(=O)N2CCC(c3ccc(N)nn3)CC2)ncc1-c1ccc(OC2CC2)cc1 [Compound 41, [4-(6-Amino-pyridazin-3-yl)-piperidin-1-yl]-[5-(4-cyclopropoxy-phenyl)-4-methoxy-pyridin-2-yl]-methanone]
700 | COc1cc(C(=O)N2CCC(c3ccc(N)nn3)CC2)ncc1-c1ccc(C(F)(F)F)nc1 [Compound 42]
390 | COc1cc(C(=O)N2CCC(c3ccc(N)nn3)CC2)ncc1-c1ccc(C2CC2)nc1 [Compound 43, [4-(6-Amino-pyridazin-3-yl)-piperidin-1-yl]-(6′-cyclopropyl-4-methoxy-[3,3′]bipyridinyl-6-yl)-methanone]
1700 | CCc1ccc(-c2cnc(C(=O)N3CCC(c4ccc(N)nn4)CC3)cc2OC)cn1 [Compound 44, [4-(6-Amino-pyridazin-3-yl)-piperidin-1-yl]-(6′-ethyl-4-methoxy-[3,3′]bipyridinyl-6-yl)-methanone]
440 | CCOc1ccc(-c2cnc(C(=O)N3CCC(c4ccc(N)nn4)CC3)cc2OC)cn1 [Compound 45, [4-(6-Amino-pyridazin-3-yl)-piperidin-1-yl]-(6′-ethoxy-4-methoxy-[3,3′]bipyridinyl-6-yl)-methanone]
4000 | COc1ccc(-c2cnc(C(=O)N3CCC(c4ccc(N)nn4)CC3)cc2OC)cn1 [Compound 46, [4-(6-Amino-pyridazin-3-yl)-piperidin-1-yl]-(4,6′-dimethoxy-[3,3′]bipyridinyl-6-yl)-methanone]
200 | COc1cc(C(=O)N2CCC(c3ccc(N)nn3)CC2)ncc1-c1ccc(OCC(F)(F)F)nc1 [Compound 47, [4-(6-Amino-pyridazin-3-yl)-piperidin-1-yl]-[4-methoxy-6′-(2,2,2-trifluoro-ethoxy)-[3,3′]bipyridinyl-6-yl]-methanone]
130 | COc1cc(C(=O)N2CCC(c3ccc(N)nn3)CC2)ncc1-c1ccc(OC(F)(F)F)nc1 [Compound 48, [4-(6-Amino-pyridazin-3-yl)-piperidin-1-yl]-(4-methoxy-6′-trifluoromethoxy-[3,3′]bipyridinyl-6-yl)-methanone]
